Earlier results in patent US20200093858A1, “VAGINAL BIOADHESIVE BORIC ACID FORMULATION AND ITS PREPARATION METHOD” (Halo Science LLC, priority 2015, published 2020).
Like-named read-outs stand apart in the source and are kept apart here.

What was measured:
common fungi or bacteria = conditions: in urine
C. albicans = conditions: 2×10^6 per mL of C. albicans, in vitro
T. glabrata = conditions: refractory T. glabrata vaginitis
[1] = 600 mg per day, therapeutic course of two weeks
[2] = tested on: recurrent bacterial vaginosis; conditions: for cure rate / cumulative cure rate: boric acid in addition to nitroimidazole

SMILES: OB(O)O [boric acid]
- boric acid concentration that could suppress almost all common fungi or bacteria (common fungi or bacteria): 10 to 20 mg/mL
- boric acid concentration that inhibited proliferation of C. albicans (C. albicans): 4%
- cure rate (vulvovaginal candidiasis; boric acid treatment of vulvovaginal candidiasis): > 90%
- efficacy compared with conazoles (vulvovaginal candidiasis; treatment for 14 days): equivalent to conazoles
- Clinical efficacy (T. glabrata): ≤ 81%
- mycological eradication rate (T. glabrata): ≤ 77%
- adverse reactions [1]: did not cause adverse reactions
- adverse reactions ([2]; in vivo): No adverse reactions were observed
- cure rate ([2]; week 7): 88%
- cure rate ([2]; week 12): 92%
- cumulative cure rate ([2]; week 16): 78%
- cumulative cure rate ([2]; week 28): 65%
